Data published in publication PMC10539350 (Scientific Reports, 2023).
Values after ≈ are worked out from the molar mass of the structure shown.

These compounds were tested on M. tuberculosis SIRE Ciprofloxacin resistant 22/22 (assay: tuberculostatic activity, broth microdilution MIC (Alamar blue)). Details: not given.
Format: cell-based, Mycobacterium tuberculosis
In the case of `CO[C@H]1/C=C/O[C@@]2(C)Oc3c(C)c(O)c4c(O)c(c(/C=N/N5CCN(C)CC5)c(O)c4c3C2=O)NC(=O)/C(C)=C\C=C\[C@H](C)[C@H](O)[C@@H](C)[C@@H](O)[C@@H](C)[C@H](OC(C)=O)[C@@H]1C` [Rifampicin, reference compound], the activity in words is reported as “no activity”.

Same assay, conditions: Mycobacterium tuberculosis, read-out: Minimal inhibitory concentration
`CC(=O)NC[C@H]1CN(c2ccc(N3CCOCC3)c(F)c2)C(=O)O1` [Linezolid, reference compound] gave an MIC of 8 µg/mL (≈ 23.7 µM).
`CO[C@H]1/C=C/O[C@@]2(C)Oc3c(C)c(O)c4c(O)c(c(/C=N/N5CCN(C)CC5)c(O)c4c3C2=O)NC(=O)/C(C)=C\C=C\[C@H](C)[C@H](O)[C@@H](C)[C@@H](O)[C@@H](C)[C@H](OC(C)=O)[C@@H]1C` [Rifampicin, reference compound] was tested, and the MIC was 256 µg/mL (≈ 311 µM).

Same assay, conditions: Mycobacterium tuberculosis; read-out: Minimal inhibitory concentration
`CC1CCC(C(C)C)C(OCC(=O)N2CCN(c3cc4c(cc3F)c(=O)c(C(=O)O)cn4C3CC3)CC2)C1` (stereo not drawn) [Compound 1] showed an MIC of 32 µg/mL (≈ 60.6 µM).
Work on `CC1CCC(C(C)C)C(OC(=O)CN2CCN(c3cc4c(cc3F)c(=O)c(C(=O)O)cn4C3CC3)CC2)C1` (stereo not drawn) [Compound 2] yielded an MIC of 16 µg/mL (≈ 30.3 µM).
`CC1CCC(C(C)C)C(OC(=O)CCN2CCN(c3cc4c(cc3F)c(=O)c(C(=O)O)cn4C3CC3)CC2)C1` (stereo not drawn) [Compound 3] showed an MIC of 16 µg/mL (≈ 29.5 µM).
`CC1CCC(C(C)C)C(OC(=O)CCCN2CCN(c3cc4c(cc3F)c(=O)c(C(=O)O)cn4C3CC3)CC2)C1` (stereo not drawn) [Compound 4] was tested, and the MIC was 16 µg/mL (≈ 28.8 µM).
`CC1CCC(C(C)C)C(OC(=O)CCCCN2CCN(c3cc4c(cc3F)c(=O)c(C(=O)O)cn4C3CC3)CC2)C1` (stereo not drawn) [Compound 5] was tested, and the MIC was 16 µg/mL (≈ 28.1 µM).
`CC(C)[C@@H]1CC[C@@H](C)C[C@H]1OC(=O)CCCCCN1CCN(c2cc3c(cc2F)c(=O)c(C(=O)O)cn3C2CC2)CC1` [Compound 6, 1‐cyclopropyl‐6‐fluoro‐7‐{4‐[6‐((1R,2S,5R)‐2‐isopropyl‐5‐methylcyclohexyloxy)‐6‐oxohexyl]piperazin‐1‐yl}‐4‐oxo‐1,4‐dihydroquinoline‐3‐carboxylic acid] was tested, and the MIC was 8 µg/mL (≈ 13.7 µM).
With `CC1CCC(C(C)C)C(OC(=O)CCCCOC(=O)c2cn(C3CC3)c3cc(N4CCN(CCCCC(=O)OC5CC(C)CCC5C(C)C)CC4)c(F)cc3c2=O)C1` (stereo not drawn) [Compound 7] the MIC was 256 µg/mL (≈ 317 µM).
Work on `CC1CCC(C(C)C)C(OC(=O)CCCCCOC(=O)c2cn(C3CC3)c3cc(N4CCN(CCCCCC(=O)OC5CC(C)CCC5C(C)C)CC4)c(F)cc3c2=O)C1` (stereo not drawn) [Compound 8] yielded an MIC of 256 µg/mL (≈ 306 µM).
For `Cc1ccc(C(C)C)c(OCC(=O)N2CCN(c3cc4c(cc3F)c(=O)c(C(=O)O)cn4C3CC3)CC2)c1` [Compound 9], the MIC was 128 µg/mL (≈ 245 µM).
`Cc1ccc(C(C)C)c(OC(=O)CN2CCN(c3cc4c(cc3F)c(=O)c(C(=O)O)cn4C3CC3)CC2)c1` [Compound 10] was tested, and the MIC was 128 µg/mL (≈ 245 µM).
For `Cc1ccc(C(C)C)c(OC(=O)CCN2CCN(c3cc4c(cc3F)c(=O)c(C(=O)O)cn4C3CC3)CC2)c1` [Compound 11], the MIC was 64 µg/mL (≈ 119 µM).
For `Cc1ccc(C(C)C)c(OC(=O)CCCN2CCN(c3cc4c(cc3F)c(=O)c(C(=O)O)cn4C3CC3)CC2)c1` [Compound 12], the MIC was 32 µg/mL (≈ 58.2 µM).
`Cc1ccc(C(C)C)c(OC(=O)CCCCN2CCN(c3cc4c(cc3F)c(=O)c(C(=O)O)cn4C3CC3)CC2)c1` [Compound 13] showed an MIC of 32 µg/mL (≈ 56.8 µM).
`Cc1ccc(C(C)C)c(OC(=O)CCCCCN2CCN(c3cc4c(cc3F)c(=O)c(C(=O)O)cn4C3CC3)CC2)c1` [Compound 14] was tested, and the MIC was 16 µg/mL (≈ 27.7 µM).
In the case of `Cc1ccc(C(C)C)c(OC(=O)CCCOC(=O)c2cn(C3CC3)c3cc(N4CCN(CCCC(=O)Oc5cc(C)ccc5C(C)C)CC4)c(F)cc3c2=O)c1` [Compound 15], the MIC is reported as 256 µg/mL (≈ 333 µM).
`Cc1ccc(C(C)C)c(OC(=O)CCCCCOC(=O)c2cn(C3CC3)c3cc(N4CCN(CCCCCC(=O)Oc5cc(C)ccc5C(C)C)CC4)c(F)cc3c2=O)c1` [Compound 16] was tested, and the MIC was 256 µg/mL (≈ 311 µM).
With `CC[C@@H](CO)NCCN[C@@H](CC)CO` [Ethambutol, reference compound] the MIC was 4 µg/mL (≈ 19.6 µM).
`NNC(=O)c1ccncc1` [Isoniazid, reference compound] showed an MIC of 32 µg/mL (≈ 233 µM).
Compound `[H]/N=C(/N)N[C@H]1[C@H](O)[C@@H](O)[C@H](O[C@@H]2O[C@@H](C)[C@](O)(C=O)[C@H]2O[C@@H]2O[C@@H](CO)[C@H](O)[C@@H](O)[C@@H]2NC)[C@@H](N/C(N)=N\[H])[C@@H]1O` [Streptomycin, reference compound] has an MIC of 32 µg/mL (≈ 55 µM).

Each compound was assayed on M. tuberculosis SIRE Ciprofloxacin resistant 22/22 (assay: not given). Details: not given.
Format: cell-based, Mycobacterium tuberculosis
Set-up: unit not given beside the values
`O=C(O)c1cn(C2CC2)c2cc(N3CCNCC3)c(F)cc2c1=O` [Ciprofloxacin, reference compound] was tested, and the “MIC for reference drug in the presence of derivative 6” value was 8.
In the case of `CC(=O)NC[C@H]1CN(c2ccc(N3CCOCC3)c(F)c2)C(=O)O1` [Linezolid, reference compound], the “MIC for reference drug in the presence of derivative 6” value is reported as 4.
